From paper PMC10310857 (Nature Communications, 2023)

Target: Pst_13661 (Puccinia striiformis f. sp. tritici, UniProt A0A0L0V0Y3, T32S)
Type: biochemical
Details: 100 µM

SMILES: O=C(NO)c1ccccc1 [Compound 1, benzohydroxamic acid]
- Inhibition Rate Pst_13661 Mean: 100.8%
